{
  "source": "patent US11285148B1",
  "about": "(King Abdulaziz University, priority 2021, dated 2022)",
  "origin": "cited, not measured here",
  "tested_on": "yeast isolates obtained from cases of keratitis",
  "data": [
    {"smiles": "CC(=O)N1CCN(c2ccc(OCC3COC(Cn4ccnc4)(c4ccc(Cl)cc4Cl)O3)cc2)CC1", "note": "(stereo not shown) [KET, Ketoconazole]", "values": [
      {"measurement": "Minimum inhibitory concentration", "result": "0.015 to 0.125", "unit": "µg/mL"}
    ]}
  ]
}
